Results: ChEMBL document CHEMBL3045656, “Is the application of carbendazim harmful to healthy plants? Evidence of weak phytotoxicity in tobacco” (J Agric Food Chem, 2002)

How the values were obtained:
Assay type in all cases: organism-based
Nicotiana tabacum [1] = test: Toxicity in Nicotiana tabacum (tobacco) leaves assessed as effect on carotenoids level at 1.3 mM treated 3 times in 2 weeks measured prior to onset of flowering relative to control; conditions: in vivo, 336 h, 1300 µM
Nicotiana tabacum [2] = test: Toxicity in Nicotiana tabacum (tobacco) leaves assessed as potassium level per gram of dry weight per leaf at 1.3 mM treated 3 times in 2 weeks measured prior to onset of flowering relative to control; conditions: in vivo, 336 h, 1300 µM
Nicotiana tabacum [3] = test: Toxicity in Nicotiana tabacum (tobacco) leaves assessed as phosphorus level per gram of dry weight per leaf at 5.2 mM treated 3 times in 2 weeks measured prior to onset of flowering relative to control; conditions: in vivo, 336 h, 5200 µM
Nicotiana tabacum [4] = test: Toxicity in Nicotiana tabacum (tobacco) leaves assessed as effect on carotenoids level at 2.6 mM treated 3 times in 2 weeks measured prior to onset of flowering relative to control; conditions: in vivo, 336 h, 2600 µM
Nicotiana tabacum [5] = test: Toxicity in Nicotiana tabacum (tobacco) leaves assessed as effect on chlorophyll-a level at 1.3 mM treated 3 times in 2 weeks measured prior to onset of flowering relative to control; conditions: in vivo, 336 h, 1300 µM
Nicotiana tabacum [6] = test: Toxicity in Nicotiana tabacum (tobacco) leaves assessed as nitrogen level per gram of dry weight per leaf at 2.6 mM treated 3 times in 2 weeks measured prior to onset of flowering relative to control; conditions: in vivo, 336 h, 2600 µM
Nicotiana tabacum [7] = test: Toxicity in Nicotiana tabacum (tobacco) leaves assessed as reduction of dry weight at 5.2 mM treated 3 times in 2 weeks measured prior to onset of flowering relative to control; design: scale not given: the % may be the effect or the level left; conditions: in vivo, 336 h, 5200 µM
Nicotiana tabacum [8] = test: Toxicity in Nicotiana tabacum (tobacco) leaves assessed as potassium level per gram of dry weight per leaf at 2.6 mM treated 3 times in 2 weeks measured prior to onset of flowering relative to control; conditions: in vivo, 336 h, 2600 µM
Nicotiana tabacum [9] = test: Toxicity in Nicotiana tabacum (tobacco) leaves assessed as effect on carotenoids level at 5.2 mM treated 3 times in 2 weeks measured prior to onset of flowering relative to control; conditions: in vivo, 336 h, 5200 µM
Nicotiana tabacum [10] = test: Toxicity in Nicotiana tabacum (tobacco) leaves assessed as potassium level per gram of dry weight per leaf at 5.2 mM treated 3 times in 2 weeks measured prior to onset of flowering relative to control; conditions: in vivo, 336 h, 5200 µM
Nicotiana tabacum [11] = test: Toxicity in Nicotiana tabacum (tobacco) leaves assessed as effect on chlorophyll-a level at 5.2 mM treated 3 times in 2 weeks measured prior to onset of flowering relative to control; conditions: in vivo, 336 h, 5200 µM
Nicotiana tabacum [12] = test: Toxicity in Nicotiana tabacum (tobacco) leaves assessed as phosphorus level per gram of dry weight per leaf at 2.6 mM treated 3 times in 2 weeks measured prior to onset of flowering relative to control; conditions: in vivo, 336 h, 2600 µM
Nicotiana tabacum [13] = test: Toxicity in Nicotiana tabacum (tobacco) leaves assessed as calcium level per gram of dry weight per leaf at 5.2 mM treated 3 times in 2 weeks measured prior to onset of flowering relative to control; conditions: in vivo, 336 h, 5200 µM
Nicotiana tabacum [14] = test: Toxicity in Nicotiana tabacum (tobacco) leaves assessed as calcium level per gram of dry weight per leaf at 1.3 mM treated 3 times in 2 weeks measured prior to onset of flowering relative to control; conditions: in vivo, 336 h, 1300 µM
Nicotiana tabacum [15] = test: Toxicity in Nicotiana tabacum (tobacco) leaves assessed as effect on chlorophyll-b level at 5.2 mM treated 3 times in 2 weeks measured prior to onset of flowering relative to control; conditions: in vivo, 336 h, 5200 µM
Nicotiana tabacum [16] = test: Toxicity in Nicotiana tabacum (tobacco) leaves assessed as nitrogen level per gram of dry weight per leaf at 5.2 mM treated 3 times in 2 weeks measured prior to onset of flowering relative to control; conditions: in vivo, 336 h, 5200 µM
Nicotiana tabacum [17] = test: Toxicity in Nicotiana tabacum (tobacco) leaves assessed as effect on chlorophyll-b level at 1.3 mM treated 3 times in 2 weeks measured prior to onset of flowering relative to control; conditions: in vivo, 336 h, 1300 µM
Nicotiana tabacum [18] = test: Toxicity in Nicotiana tabacum (tobacco) leaves assessed as magnesium level per gram of dry weight per leaf at 1.3 mM treated 3 times in 2 weeks measured prior to onset of flowering relative to control; conditions: in vivo, 336 h, 1300 µM
Nicotiana tabacum [19] = test: Toxicity in Nicotiana tabacum (tobacco) leaves assessed as effect on chlorophyll-a level at 2.6 mM treated 3 times in 2 weeks measured prior to onset of flowering relative to control; conditions: in vivo, 336 h, 2600 µM
Nicotiana tabacum [20] = test: Toxicity in Nicotiana tabacum (tobacco) leaves assessed as magnesium level per gram of dry weight per leaf at 5.2 mM treated 3 times in 2 weeks measured prior to onset of flowering relative to control; conditions: in vivo, 336 h, 5200 µM
Nicotiana tabacum [21] = test: Toxicity in Nicotiana tabacum (tobacco) leaves assessed as calcium level per gram of dry weight per leaf at 2.6 mM treated 3 times in 2 weeks measured prior to onset of flowering relative to control; conditions: in vivo, 336 h, 2600 µM
Nicotiana tabacum [22] = test: Toxicity in Nicotiana tabacum (tobacco) leaves assessed as phosphorus level per gram of dry weight per leaf at 1.3 mM treated 3 times in 2 weeks measured prior to onset of flowering relative to control; conditions: in vivo, 336 h, 1300 µM
Nicotiana tabacum [23] = test: Toxicity in Nicotiana tabacum (tobacco) leaves assessed as effect on chlorophyll-b level at 2.6 mM treated 3 times in 2 weeks measured prior to onset of flowering relative to control; conditions: in vivo, 336 h, 2600 µM
Nicotiana tabacum [24] = test: Toxicity in Nicotiana tabacum (tobacco) leaves assessed as reduction of dry weight at 1.3 to 2.6 mM treated 3 times in 2 weeks measured prior to onset of flowering; conditions: in vivo, 336 h, 2600 µM
Nicotiana tabacum [25] = test: Toxicity in Nicotiana tabacum (tobacco) leaves assessed as nitrogen level per gram of dry weight per leaf at 1.3 mM treated 3 times in 2 weeks measured prior to onset of flowering relative to control; conditions: in vivo, 336 h, 1300 µM
Nicotiana tabacum [26] = test: Toxicity in Nicotiana tabacum (tobacco) leaves assessed as magnesium level per gram of dry weight per leaf at 2.6 mM treated 3 times in 2 weeks measured prior to onset of flowering relative to control; conditions: in vivo, 336 h, 2600 µM

## COC(=O)Nc1nc2ccccc2[nH]1 [CARBENDAZIM]
Nicotiana tabacum [1]
  Activity: 4.8 microg/cm2
Nicotiana tabacum [2]
  Activity: 36.7 mg
Nicotiana tabacum [3]
  Activity: 8.47 mg
Nicotiana tabacum [4]
  Activity: 4.64 microg/cm2
Nicotiana tabacum [5]
  Activity: 66.82 microg/cm2
Nicotiana tabacum [6]
  Activity: 41.6 mg
Nicotiana tabacum [7]
  Activity: 17%
Nicotiana tabacum [8]
  Activity: 35.4 mg
Nicotiana tabacum [9]
  Activity: 3.9 microg/cm2
Nicotiana tabacum [10]
  Activity: 34.1 mg
Nicotiana tabacum [11]
  Activity: 54.14 microg/cm2
Nicotiana tabacum [12]
  Activity: 8.61 mg
Nicotiana tabacum [13]
  Activity: 10.1 mg
Nicotiana tabacum [14]
  Activity: 10.5 mg
Nicotiana tabacum [15]
  Activity: 21.9 microg/cm2
Nicotiana tabacum [16]
  Activity: 38.9 mg
Nicotiana tabacum [17]
  Activity: 25.88 microg/cm2
Nicotiana tabacum [18]
  Activity: 6.4 mg
Nicotiana tabacum [19]
  Activity: 62.46 microg/cm2
Nicotiana tabacum [20]
  Activity: 6.5 mg
Nicotiana tabacum [21]
  Activity: 10.2 mg
Nicotiana tabacum [22]
  Activity: 9.73 mg
Nicotiana tabacum [23]
  Activity: 24.98 microg/cm2
Nicotiana tabacum [24]
  Activity: Non-toxic
Nicotiana tabacum [25]
  Activity: 41.7 mg
Nicotiana tabacum [26]
  Activity: 6.7 mg
